Test results from patent US10774080B2, “Pyrimidine compound as JAK kinase inhibitor” (THERAVANCE BIOPHARMA R&D IP, LLC, priority 2017, dated 2020).

What was measured:
[1] = Assay 9: skin tissue concentration in mice; format: in vivo; conditions: Balb/c, mouse, topical ointment 25 μl/cm^2, biopsy one hour after IL-31
From the text: The JAK/STAT (janus kinase/signal transducer and activator of transcription) signaling pathway is a key element in the communication between immune cells and is mainly activated through cytokine receptors. Binding of cytokine IL-31 leads to the activation and phosphorylation of JAK1/JAK2 tyrosine kinases which in turn leads to the phosphorylation of STAT3 (pSTAT3). The activated STAT then translocates into the nucleus and directly regulates the transcription of cytokine-sensitive genes. In these studies, Balb/c mice were dosed with an ointment formulation of compound (I). Ointment vehicle (Table 9) or compound (I) formulated in the ointment vehicle was applied topically to shaved skin (25 μl/cm^2) 30 minutes before the intradermal injection (50 μl/1×1 cm2 site) of IL-31 (1 μg/ml) at a 1×1 cm^2 shaved area of skin on the back between the ears. One hour after IL-31, skin biopsies were collected. The tissue samples were flash frozen and analyzed for pSTAT3 by ELISA and compound concentration. Compound (I) inhibited pSTAT3 production by 80% and the skin tissue concentration of compound (I) was 62 μM.

[2] = test system: CXCL10 gene expression; test: Assay 7: ex vivo JAK PD assay, freshly excised human skin, CXCL10; conditions: 0.5% ointment, about 40 hours continuous exposure, Th1-skewed stimulation (TNFα, IFNγ, IL-12), vs vehicle
Method: (§1) Assay 7: Ex Vivo JAK Pharmacodynamic (PD) Assay Using Human Freshly Excised Skin An ex vivo JAK pharmacodynamics (PD) assay was conducted using human isolated skin tissue. The PD assay used fresh human skin (dermatome of 750 μm thickness) that was mounted in static Franz cells with a surface area of ˜0.5 cm^2. The receiver chambers of the Franz cells were filled with warm (37° C.) cornification media and placed in an incubator at 37° C. The skin was topically dosed with 10 μL ([…]) of compound (I) or vehicle and was left undisturbed overnight (˜24 hours). The next day, with no re-application of the test compound or vehicle, the media was replaced with a Th1-skewed stimulation cocktail consisting of TNFα, IFNγ and IL-12. The skin was left undisturbed for an additional 16 hours, and then harvested and processed for RNA extraction and qPCR of biomarkers: CXCL10, CCL2. GAPDH was used as an internal standard. The compound (I) was formulated in an ointment formulation at 0.5% strength. A total of three skin donors (tested in quadruplicates/sample/treatment) were used. Treatment effect was calculated as the percent increase or decrease in stimulation compared to the vehicle group. [table]

[3] = test system: IL-12 induced STAT4 phosphorylation in human CD3+ T cells; test: Assay 12: inhibition of IL-12-induced STAT4 phosphorylation in human CD3+ T cells; format: cell-based; conditions: T-cell, read-out: pIC50 for inhibition of IL-12 induced STAT4 phosphorylation (converted)
Method: Assay 12: Inhibition of IL-12-Induced STAT4 Phosphorylation in Human CD3+ T Cells
This cellular potency assay for JAK inhibition was carried out by measuring interleukin-12 (IL-12, R&D Systems) induced STAT4 phosphorylation in human CD3^+ T cells. The CD3 antibody (Becton Dickinson (BD) Biosciences) was conjugated to R-Phycoerythrin (R-PE). The pSTAT4 antibody (pTyr641, BD Biosciences) was conjugated with Alexa Fluor 647.
Human peripheral blood mononuclear cells were cultured at 37° C. in a 5% CO2 humidified incubator in RPMI medium (Life Technologies) supplemented with 10% FBS (Life Technologies), 100 U/mL penicillin, 100 μg/mL streptomycin (Life Technologies), 2 mM GlutaMAX (Life Technologies), plate bound anti CD3 (5 μg/mL, UCHT1, BD Biosciences) and soluble anti-CD28 (1 μg/mL, CD28.2, BD Biosciences) for 3 days. Cells were then resuspended in RPMI medium (Life Technologies) supplemented with 10% FBS (Life Technologies), 100 U/mL penicillin, 100 μg/mL streptomycin (Life Technologies), 2 mM GlutaMAX (Life Technologies) and 10 ng/mL interleukin-2 (IL-2, R&D Systems) for an additional 3 days. […] For dose-response analysis, mean fluorescence intensity values were plotted vs. compound concentrations, and IC50 values were determined from a 4-parameter robust fit model with the Prism software.

[4] = Assay 7: epidermal and dermal deposition in freshly excised human skin; format: in vitro ADME; conditions: 0.5% ointment, about 40 hours continuous exposure
Method: as §1

CCS(=O)(=O)N1[C@@H]2CCC[C@H]1C[C@H](N(C)c1nc(CO)c(F)c(Nc3cc(C)[nH]n3)n1)C2 [Compound (I), (2-(((1R,3s,5S)-9-(ethylsulfonyl)-9-azabicyclo[3.3.1]nonan-3-yl)(methyl)amino)-5-fluoro-6-((5-methyl-1H-pyrazol-3-yl)amino)pyrimidin-4-yl)methanol]
concentration at 1.5 h [1]: 62 µM | PD-% Inhibition (mean ± SD) CXCL10 [2]: 90.1% | IC50 [3]: 63.1 nM | PK-Tissue concentration (μM, mean ± SD) Dermis [4]: 6.1 ± 5.3 µM | PK-Tissue concentration (μM, mean ± SD) Epidermis [4]: 116.5 ± 91.9 µM
